According to the NIST ThermoML archive (doi:10.1016/j.jct.2015.07.028):

Assay: molar heat capacity at saturation pressure
Conditions: Small (less than 1 g) adiabatic calorimetry

C=CC(C)(C)O [2-methyl-3-buten-2-ol]
molar heat capacity [J/K/mol]
Conditions	Crystal 1	Liquid
169.35 K	120.3	–
169.77 K	120.8	–
170 K	121	–
171.3 K	122.5	–
172.07 K	123.4	–
173.24 K	124.6	–
174.35 K	125.9	–
175.17 K	126.8	–
176.62 K	128.4	–
177.09 K	128.8	–
178.87 K	130.7	–
179 K	130.8	–
179.83 K	131.6	–
180 K	131.9	–
180.91 K	132.7	–
181.12 K	133	–
182.29 K	134.1	–
182.8 K	134.7	–
183.35 K	135.2	–
184.61 K	136.5	–
184.69 K	136.5	–
185.57 K	137.5	–
186.58 K	138.4	–
186.93 K	138.7	–
187.79 K	139.5	–
188.45 K	140.2	–
189.23 K	140.9	–
189.99 K	141.7	–
190 K	141.7	–
190.32 K	141.9	–
190.4 K	142	–
191.52 K	143.1	–
192.18 K	143.7	–
192.46 K	144.1	–
193.79 K	145.4	–
194.04 K	145.5	–
194.36 K	146	–
194.42 K	146	–
195.89 K	147.4	–
196.05 K	147.7	–
196.36 K	147.9	–
196.53 K	148.2	–
197.73 K	149.3	–
198.3 K	150	–
198.69 K	150.5	–
199.56 K	151.3	–
200 K	151.5	–
200.23 K	152	–
200.54 K	152.4	–
200.84 K	152.9	–
201.38 K	153.4	–
202.15 K	154.2	–
202.82 K	155.2	–
202.98 K	155.5	–
203.2 K	155.5	–
204.05 K	156.6	–
205 K	157.8	–
205.1 K	158.3	–
205.14 K	158.2	–
205.95 K	159.3	–
206.79 K	160.4	–
207.21 K	161.1	–
207.45 K	161.3	–
207.83 K	162	–
208.58 K	163	–
209.3 K	164.2	–
209.7 K	164.9	–
209.73 K	164.8	–
210 K	161.4	–
210.51 K	166.1	–
211.48 K	167.6	–
211.99 K	168.4	–
212.63 K	169.5	–
213.77 K	171.3	–
214.23 K	172.1	–
214.72 K	172.9	–
216.04 K	174.8	–
216.46 K	175.1	–
216.8 K	176	–
218.3 K	178.6	–
218.66 K	178.8	–
218.86 K	179	–
220 K	171.2	–
220.53 K	182.2	–
220.85 K	182.3	–
220.9 K	182.4	–
222.77 K	186.2	–
222.93 K	186.4	–
223.02 K	186.5	–
224.94 K	191.2	–
224.97 K	190.4	–
225.17 K	191	–
226.94 K	195.7	–
227.09 K	196.6	–
227.29 K	196	–
228.88 K	201.4	–
229.2 K	202.9	–
229.37 K	202.7	–
230.8 K	208.3	–
231.27 K	210.9	–
231.43 K	210.5	–
232.67 K	217.3	–
233.3 K	221.6	–
233.43 K	221.3	–
234.49 K	229.7	–
235.25 K	237.1	–
235.37 K	236.9	–
236.24 K	248.1	–
240 K	190.8	–
245.03 K	195.7	193.8
245.63 K	–	195.7
245.81 K	–	194.6
